Laboratory results reported in ChEMBL document CHEMBL5724806, “Unraveling interindividual differences and functional consequences of gut microbial metabolism of immunosuppressants” (2024).

What was measured:
Type in all cases: ADME
[1] = (§1) The drug is tested on Actinomyces naeslundi strain: DSM43013 for biotransformation under anaerobic condition. The drug concentrations were measured over 6 timepoints collected between 0 and 12 hours of incubation by liquid-chromatography-coupled mass spectrometry (LC–MS); set-up: dose 5 uM, timepoint 0, 1.5, 3, 6, 9, 12 hours; details: actinomyces naeslundii, 5 µM
[2] = The drug is tested on Bifidobacterium longum strain: DSM20088 for biotransformation under anaerobic condition. The drug concentrations were measured over 6 timepoints collected between 0 and 12 hours of incubation by liquid-chromatography-coupled mass spectrometry (LC–MS); set-up: dose 5 uM, timepoint 0, 1.5, 3, 6, 9, 12 hours; details: 5 µM
[3] = The drug is tested on Collinsella aerofaciens strain: DSM3979 for biotransformation under anaerobic condition. The drug concentrations were measured over 6 timepoints collected between 0 and 12 hours of incubation by liquid-chromatography-coupled mass spectrometry (LC–MS); set-up: dose 5 uM, timepoint 0, 1.5, 3, 6, 9, 12 hours; details: 5 µM
[4] = The drug is tested on Bacteroides ovatus strain: ATCC 8483 for biotransformation under anaerobic condition. The drug concentrations were measured over 6 timepoints collected between 0 and 12 hours of incubation by liquid-chromatography-coupled mass spectrometry (LC–MS); set-up: dose 5 uM, timepoint 0, 1.5, 3, 6, 9, 12 hours; details: 5 µM
[5] = The drug is tested on Bacteroides stercoris strain: HM 1036 for biotransformation under anaerobic condition. The drug concentrations were measured over 6 timepoints collected between 0 and 12 hours of incubation by liquid-chromatography-coupled mass spectrometry (LC–MS); set-up: dose 5 uM, timepoint 0, 1.5, 3, 6, 9, 12 hours; details: 5 µM
[6] = The drug is tested on Bacteroides thetaiotaomicron strain: DSM2079 for biotransformation under anaerobic condition. The drug concentrations were measured over 6 timepoints collected between 0 and 12 hours of incubation by liquid-chromatography-coupled mass spectrometry (LC–MS); set-up: dose 5 uM, timepoint 0, 1.5, 3, 6, 9, 12 hours; details: 5 µM
[7] = The drug is tested on Bacteroides vulgatus strain: DSM1447 for biotransformation under anaerobic condition. The drug concentrations were measured over 6 timepoints collected between 0 and 12 hours of incubation by liquid-chromatography-coupled mass spectrometry (LC–MS); set-up: dose 5 uM, timepoint 0, 1.5, 3, 6, 9, 12 hours; details: phocaeicola vulgatus, 5 µM
[8] = The drug is tested on Odoribacter splanchnicus strain: DSM20712 for biotransformation under anaerobic condition. The drug concentrations were measured over 6 timepoints collected between 0 and 12 hours of incubation by liquid-chromatography-coupled mass spectrometry (LC–MS); set-up: dose 5 uM, timepoint 0, 1.5, 3, 6, 9, 12 hours; details: 5 µM
[9] = The drug is tested on Clostridium bolteae strain: DSM15670 for biotransformation under anaerobic condition. The drug concentrations were measured over 6 timepoints collected between 0 and 12 hours of incubation by liquid-chromatography-coupled mass spectrometry (LC–MS); set-up: dose 5 uM, timepoint 0, 1.5, 3, 6, 9, 12 hours; details: enterocloster bolteae, 5 µM
[10] = The drug is tested on Coprococcus comes strain: ATCC27758 for biotransformation under anaerobic condition. The drug concentrations were measured over 6 timepoints collected between 0 and 12 hours of incubation by liquid-chromatography-coupled mass spectrometry (LC–MS); set-up: dose 5 uM, timepoint 0, 1.5, 3, 6, 9, 12 hours; details: 5 µM
[11] = The drug is tested on Roseburia intestinalis strain: DSM14610 for biotransformation under anaerobic condition. The drug concentrations were measured over 6 timepoints collected between 0 and 12 hours of incubation by liquid-chromatography-coupled mass spectrometry (LC–MS); set-up: dose 5 uM, timepoint 0, 1.5, 3, 6, 9, 12 hours; details: 5 µM
[12] = The drug is tested on Ruminococcus gnavus strain: ATCC29149 for biotransformation under anaerobic condition. The drug concentrations were measured over 6 timepoints collected between 0 and 12 hours of incubation by liquid-chromatography-coupled mass spectrometry (LC–MS); set-up: dose 5 uM, timepoint 0, 1.5, 3, 6, 9, 12 hours; details: mediterraneibacter gnavus, 5 µM
[13] = The drug is tested on Streptococcus mitis strain: DSM12643 for biotransformation under anaerobic condition. The drug concentrations were measured over 6 timepoints collected between 0 and 12 hours of incubation by liquid-chromatography-coupled mass spectrometry (LC–MS); set-up: dose 5 uM, timepoint 0, 1.5, 3, 6, 9, 12 hours; details: 5 µM
[14] = The drug is tested on Escherichia coli strain: DSM27469 for biotransformation under anaerobic condition. The drug concentrations were measured over 6 timepoints collected between 0 and 12 hours of incubation by liquid-chromatography-coupled mass spectrometry (LC–MS); set-up: dose 5 uM, timepoint 0, 1.5, 3, 6, 9, 12 hours; details: 5 µM
[15] = (§2) The drug is tested on Alloscardovia omnicolens strain: DSM21503 for biotransformation under microaerobic condition. The drug concentrations were measured over 6 timepoints collected between 0 and 12 hours of incubation by liquid-chromatography-coupled mass spectrometry (LC–MS); set-up: dose 5 uM, timepoint 0, 1.5, 3, 6, 9, 12 hours; details: 5 µM
[16] = The drug is tested on Bifidobacterium longum strain: DSM20088 for biotransformation under microaerobic condition. The drug concentrations were measured over 6 timepoints collected between 0 and 12 hours of incubation by liquid-chromatography-coupled mass spectrometry (LC–MS); set-up: dose 5 uM, timepoint 0, 1.5, 3, 6, 9, 12 hours; details: 5 µM
[17] = The drug is tested on Gemella morbillorum strain: DSM20572 for biotransformation under microaerobic condition. The drug concentrations were measured over 6 timepoints collected between 0 and 12 hours of incubation by liquid-chromatography-coupled mass spectrometry (LC–MS); set-up: dose 5 uM, timepoint 0, 1.5, 3, 6, 9, 12 hours; details: 5 µM
[18] = The drug is tested on Enterococcus faecalis strain: ATCC29212 for biotransformation under microaerobic condition. The drug concentrations were measured over 6 timepoints collected between 0 and 12 hours of incubation by liquid-chromatography-coupled mass spectrometry (LC–MS); set-up: dose 5 uM, timepoint 0, 1.5, 3, 6, 9, 12 hours; details: 5 µM
[19] = as §1, with “the gut metagenome community of A-03 with ENA study accession number: PRJEB31790” for “Actinomyces naeslundi strain: DSM43013”, “7” for “6”; set-up: dose 5 uM, timepoint 0, 0.75, 1.5, 3, 6, 9, 12 hours; details: 5 µM
[20] = as §1, with “the gut metagenome community of A-04 with ENA study accession number: PRJEB31790” for “Actinomyces naeslundi strain: DSM43013”, “7” for “6”; set-up: dose 5 uM, timepoint 0, 0.75, 1.5, 3, 6, 9, 12 hours; details: 5 µM
[21] = as §1, with “the gut metagenome community of A-08 with ENA study accession number: PRJEB31790” for “Actinomyces naeslundi strain: DSM43013”, “7” for “6”; set-up: dose 5 uM, timepoint 0, 0.75, 1.5, 3, 6, 9, 12 hours; details: 5 µM
[22] = as §1, with “the gut metagenome community of P-03 with ENA study accession number: PRJEB31790” for “Actinomyces naeslundi strain: DSM43013”, “7” for “6”; set-up: dose 5 uM, timepoint 0, 0.75, 1.5, 3, 6, 9, 12 hours; details: 5 µM
[23] = as §1, with “the gut metagenome community of T-01 with ENA study accession number: PRJEB31790” for “Actinomyces naeslundi strain: DSM43013”, “7” for “6”; set-up: dose 5 uM, timepoint 0, 0.75, 1.5, 3, 6, 9, 12 hours; details: 5 µM
[24] = as §2, with “the gut metagenome community of A-02 with ENA study accession number: PRJEB31790” for “Alloscardovia omnicolens strain: DSM21503”, “7” for “6”; set-up: dose 5 uM, timepoint 0, 0.75, 1.5, 3, 6, 9, 12 hours; details: 5 µM
[25] = as §2, with “the gut metagenome community of A-04 with ENA study accession number: PRJEB31790” for “Alloscardovia omnicolens strain: DSM21503”, “7” for “6”; set-up: dose 5 uM, timepoint 0, 0.75, 1.5, 3, 6, 9, 12 hours; details: 5 µM
[26] = as §2, with “the gut metagenome community of A-07 with ENA study accession number: PRJEB31790” for “Alloscardovia omnicolens strain: DSM21503”, “7” for “6”; set-up: dose 5 uM, timepoint 0, 0.75, 1.5, 3, 6, 9, 12 hours; details: 5 µM
[27] = as §2, with “the gut metagenome community of P-02 with ENA study accession number: PRJEB31790” for “Alloscardovia omnicolens strain: DSM21503”, “7” for “6”; set-up: dose 5 uM, timepoint 0, 0.75, 1.5, 3, 6, 9, 12 hours; details: 5 µM
[28] = as §2, with “the gut metagenome community of T-01 with ENA study accession number: PRJEB31790” for “Alloscardovia omnicolens strain: DSM21503”, “7” for “6”; set-up: dose 5 uM, timepoint 0, 0.75, 1.5, 3, 6, 9, 12 hours; details: 5 µM
[29] = as §2, with “the gut metagenome community of T-03 with ENA study accession number: PRJEB31790” for “Alloscardovia omnicolens strain: DSM21503”, “7” for “6”; set-up: dose 5 uM, timepoint 0, 0.75, 1.5, 3, 6, 9, 12 hours; details: 5 µM
[30] = as §2, with “the gut metagenome community of T-04 with ENA study accession number: PRJEB31790” for “Alloscardovia omnicolens strain: DSM21503”, “7” for “6”; set-up: dose 5 uM, timepoint 0, 0.75, 1.5, 3, 6, 9, 12 hours; details: 5 µM

Row | Compound | Bacterial Biotransformation [1] | Bacterial Biotransformation [2] | Bacterial Biotransformation [3] | Bacterial Biotransformation [4] | Bacterial Biotransformation [5] | Bacterial Biotransformation [6] | Bacterial Biotransformation [7] | Bacterial Biotransformation [8] | Bacterial Biotransformation [10] | Bacterial Biotransformation [11] | Bacterial Biotransformation [12] | Bacterial Biotransformation [13] | Bacterial Biotransformation [14] | Bacterial Biotransformation [15] | Bacterial Biotransformation [16] | Bacterial Biotransformation [17] | Bacterial Biotransformation [18] | Bacterial Biotransformation [19] | Bacterial Biotransformation [20] | Bacterial Biotransformation [21] | also measured
1 | C[C@@H]1C[C@H]2[C@@H]3CCC4=CC(=O)C=C[C@]4(C)[C@@]3(F)[C@@H](O)C[C@]2(C)[C@@]1(O)C(=O)CO [DEXAMETHASONE] | Compound NOT metabolized | Compound NOT metabolized | Compound NOT metabolized | Compound NOT metabolized | Compound NOT metabolized | Compound NOT metabolized | Compound NOT metabolized | Compound NOT metabolized | Compound NOT metabolized | Compound NOT metabolized | Compound NOT metabolized | Compound NOT metabolized | Compound NOT metabolized | Compound NOT metabolized | Compound NOT metabolized | Compound NOT metabolized | Compound NOT metabolized | Compound metabolized | Compound metabolized | Compound NOT metabolized | Bacterial Biotransformation [9]: Compound NOT metabolized; Bacterial Biotransformation [22]: Compound NOT metabolized; Bacterial Biotransformation [23]: Compound NOT metabolized; Bacterial Biotransformation [24]: Compound metabolized; Bacterial Biotransformation [25]: Compound NOT metabolized; Bacterial Biotransformation [26]: Compound metabolized; Bacterial Biotransformation [27]: Compound NOT metabolized; Bacterial Biotransformation [28]: Compound metabolized; Bacterial Biotransformation [29]: Compound NOT metabolized; Bacterial Biotransformation [30]: Compound NOT metabolized
2 | CCOC(=O)C1=C(COCCN)NC(C)=C(C(=O)OC)C1c1ccccc1Cl (centres undefined) [AMLODIPINE] | Compound NOT metabolized | Compound NOT metabolized | Compound NOT metabolized | Compound NOT metabolized | Compound NOT metabolized | Compound NOT metabolized | Compound NOT metabolized | Compound metabolized | Compound NOT metabolized | Compound NOT metabolized | Compound NOT metabolized | Compound NOT metabolized | Compound NOT metabolized | Compound NOT metabolized | Compound NOT metabolized | Compound NOT metabolized | Compound metabolized | Compound NOT metabolized | Compound NOT metabolized | Compound NOT metabolized | Bacterial Biotransformation [22]: Compound NOT metabolized; Bacterial Biotransformation [23]: Compound NOT metabolized; Bacterial Biotransformation [24]: Compound metabolized; Bacterial Biotransformation [25]: Compound NOT metabolized; Bacterial Biotransformation [26]: Compound NOT metabolized; Bacterial Biotransformation [27]: Compound NOT metabolized; Bacterial Biotransformation [28]: Compound NOT metabolized; Bacterial Biotransformation [29]: Compound NOT metabolized; Bacterial Biotransformation [30]: Compound NOT metabolized
